In ChEMBL document CHEMBL5726312, “TYK2 inhibitors and uses thereof” (2019) one finds Ki data, which are given here for 58 molecules.

The target in this assay is Non-receptor tyrosine-protein kinase TYK2 (Homo sapiens, UniProt P29597). The assay can be described thus: Tyk2 & JAK2 Caliper Assay: The caliper machine employs an off chip mobility shift assay to detect phosphorylated peptide substrates from kinase assays, using microfluidics technology. The assays are carried out at ATP concentration equivalent to the ATP Km, and at 1 mM ATP. Compounds are serially diluted in DMSO then further diluted in assay buffer (25 mM HEPES, pH 7.5, 0.01% Brij-35, 0.01% Triton, 0.5 mM EGTA). 5 ul of diluted compound was added into wells first, then 10 ul of enzyme mix was added into wells, followed by 10 uL of substrate mix (peptide and ATP in 10 mM MgCl2) to start reaction. Reaction was incubated at 28° C. for 25 min and then added 25 ul stop buffer (100 mM HEPES, 0.015% Brij-35, 50 mM EDTA), followed by reading with Caliper. JAK2 at 1 nM final concentration and TYK2 at 9.75 nM are from Carna, and substrates used are ATP at 20 and 16 uM, respectively. JAK2 assay uses peptide 22 and TYK2 uses peptide 30 (Caliper), each at 3 uM.
Sequence of Non-receptor tyrosine-protein kinase TYK2 (P29597 whole entry): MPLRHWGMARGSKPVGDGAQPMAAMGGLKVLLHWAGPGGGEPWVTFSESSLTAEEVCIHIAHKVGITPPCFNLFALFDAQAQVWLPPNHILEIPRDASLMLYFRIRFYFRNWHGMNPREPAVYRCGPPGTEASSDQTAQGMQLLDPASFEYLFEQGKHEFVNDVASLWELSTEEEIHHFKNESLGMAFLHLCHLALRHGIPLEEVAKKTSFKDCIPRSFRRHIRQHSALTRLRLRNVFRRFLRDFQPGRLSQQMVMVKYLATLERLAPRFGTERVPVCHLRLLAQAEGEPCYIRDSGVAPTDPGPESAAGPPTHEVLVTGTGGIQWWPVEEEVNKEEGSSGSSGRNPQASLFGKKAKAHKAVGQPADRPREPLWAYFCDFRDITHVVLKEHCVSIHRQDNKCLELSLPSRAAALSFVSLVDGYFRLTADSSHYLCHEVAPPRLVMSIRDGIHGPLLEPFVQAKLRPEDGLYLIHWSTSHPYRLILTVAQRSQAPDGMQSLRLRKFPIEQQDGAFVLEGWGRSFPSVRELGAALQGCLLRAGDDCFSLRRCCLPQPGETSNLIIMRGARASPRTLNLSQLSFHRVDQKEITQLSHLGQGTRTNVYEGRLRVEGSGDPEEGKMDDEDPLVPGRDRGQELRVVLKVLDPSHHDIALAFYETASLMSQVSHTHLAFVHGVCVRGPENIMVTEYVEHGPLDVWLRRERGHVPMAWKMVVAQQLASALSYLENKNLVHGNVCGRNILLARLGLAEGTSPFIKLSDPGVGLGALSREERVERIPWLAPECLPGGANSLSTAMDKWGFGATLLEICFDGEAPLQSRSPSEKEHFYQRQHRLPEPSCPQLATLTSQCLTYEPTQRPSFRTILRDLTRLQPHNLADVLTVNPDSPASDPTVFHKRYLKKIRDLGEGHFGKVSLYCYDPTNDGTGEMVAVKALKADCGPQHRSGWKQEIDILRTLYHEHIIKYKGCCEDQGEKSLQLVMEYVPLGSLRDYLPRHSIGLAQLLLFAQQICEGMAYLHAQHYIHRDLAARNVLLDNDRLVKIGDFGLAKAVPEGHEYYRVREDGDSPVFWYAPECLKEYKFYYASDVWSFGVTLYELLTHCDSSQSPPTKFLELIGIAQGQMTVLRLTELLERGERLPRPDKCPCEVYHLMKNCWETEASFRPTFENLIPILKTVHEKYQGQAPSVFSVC

By Ki is commonly meant the equilibrium dissociation constant of an inhibitor or competing ligand from its target.

In the case of `O=C1NCc2nc(-c3c(F)cccc3F)cc(Nc3ccc(C(=O)N4CCOCC4)cn3)c21`, the Ki is < 10 nM. On to `CCNC(=O)c1ccc(Nc2cc(-c3c(F)cccc3C#N)nc3c2C(=O)NC3)nc1`, for which the Ki is < 10 nM. `O=C1NCc2nc(-c3c(F)cccc3F)cc(Nc3ccc(N4CCOCC4=O)cn3)c21`: the Ki is < 10 nM. In the case of `CCNC(=O)c1ccc(Nc2cc(-c3c(F)cccc3Cl)nc3c2C(=O)NC3)nc1`, the inhibition constant Ki is < 10 nM. `CC1(c2ccc(Nc3nc(-c4c(F)cccc4F)nc4c3C(=O)NC4)cc2)COC1`: the Ki was < 10 nM. As to `CC1CC(O)CC(C)N1c1ccc(Nc2cc(-c3c(F)cccc3F)nc3c2C(=O)NC3)nc1` (stereo not drawn), the inhibition constant Ki is < 10 nM. For `CC1(C)CCCC(=O)N1c1ccc(Nc2cc(-c3c(F)cccc3F)nc3c2C(=O)NC3)nc1` the value was < 10 nM; for `O=C1NCc2nc(-c3c(F)cccc3F)cc(Nc3ccc(N4CC(F)(F)C4)cn3)c21`, < 10 nM; for `O=C1NCc2nc(-c3c(F)cccc3F)cc(Nc3ccc(F)cn3)c21`, < 10 nM.

Regarding `O=C1NCc2nc(-c3c(F)cccc3F)cc(Nc3ccc(N4CCCC(O)C4)cn3)c21` (stereo not drawn), the Ki is < 10 nM. Turning to `O=C1NCc2nc(-c3c(F)cccc3F)cc(Nc3ccc(C4(O)CCOCC4)cn3)c21`, the Ki was < 10 nM. The figure for `CC1(C)CCC(=O)N1c1ccc(Nc2cc(-c3c(F)cccc3F)nc3c2C(=O)NC3)nc1` is < 10 nM; for `CC[C@@]1(c2ccc(Nc3nc(-c4c(F)cccc4F)nc4c3C(=O)NC4)cc2)CCNC1=O` it is < 10 nM. For `O=C1NCc2nc(-c3c(F)cccc3F)cc(Nc3ccc(C4=CCOCC4)cn3)c21` the value was < 10 nM; for `O=C1NCc2nc(-c3c(F)cccc3F)c(F)c(Nc3ccc(N4CCOCC4)cn3)c21`, < 10 nM; for `O=C1NCc2nc(-c3c(F)cccc3F)cc(Nc3ccc(N4CCN(CC(F)F)CC4)cn3)c21`, < 10 nM.

Consider `CC[C@]1(c2ccc(Nc3nc(-c4c(F)cccc4F)nc4c3C(=O)NC4)cc2)CCNC1=O`, for which the Ki was < 10 nM. The figure for `O=C1NCc2nc(-c3c(F)cccc3F)cc(Nc3ccc(N4CCC[C@H](O)C4)cn3)c21` is < 10 nM.

Consider `CC1COCCN1c1ccc(Nc2cc(-c3c(F)cccc3F)nc3c2C(=O)NC3)nc1` (stereo not drawn), for which the inhibitory constant (Ki) is < 10 nM. For `O=C1NCc2nc(-c3c(F)cccc3F)cc(Nc3ccc(N4CCC5(CC5)C4)cn3)c21`, the Ki was < 10 nM. For `COCCNC(=O)c1ccc(Nc2cc(-c3c(F)cccc3F)nc3c2C(=O)NC3)nc1`, the Ki was < 10 nM. On to `CCNC(=O)c1ccc(Nc2cc(-c3c(F)cccc3F)nc3c2C(=O)NC3)cn1`, for which the inhibition constant (Ki) is < 10 nM. With `CN(c1ccc(Nc2cc(-c3c(F)cccc3F)nc3c2C(=O)NC3)nc1)C(C)(C)C`, the Ki is < 10 nM. Turning to `CC1(O)CCN(C(=O)c2ccc(Nc3cc(-c4c(F)cccc4F)nc4c3C(=O)NC4)cc2)CC1`, the inhibitory constant (Ki) was < 10 nM. On to `CC(C)Oc1ccc(Nc2nc(-c3c(F)cccc3F)nc3c2C(=O)NC3)cc1`, for which the Ki is < 10 nM. Regarding `C[C@@H]1CCC[C@H](C)N1c1ccc(Nc2cc(-c3c(F)cccc3F)nc3c2C(=O)NC3)nc1`, the Ki is < 10 nM. For `CC1(C)OCCN(c2ccc(Nc3cc(-c4c(F)cccc4F)nc4c3C(=O)NC4)nc2)C1=O`, the inhibition constant (Ki) is < 10 nM. As to `CCNC(=O)c1cnc(Nc2cc(-c3c(F)cccc3F)nc3c2C(=O)NC3)cc1F`, the Ki is < 10 nM. As to `CC1(C)CN(c2ccc(Nc3cc(-c4c(F)cccc4F)nc4c3C(=O)NC4)nc2)CC[C@@H]1O`, the Ki is < 10 nM. Regarding `CCN(CC)C(=O)c1ccc(Nc2cc(-c3c(F)cccc3F)nc3c2C(=O)NC3)cc1`, the Ki is < 10 nM. As to `CCNC(=O)Cc1ncc(Nc2nc(-c3c(F)cccc3F)nc3c2C(=O)NC3)cn1`, the inhibition constant (Ki) was > 1000 nM. With `O=C1NCc2nc(-c3c(F)cccc3F)cc(Nc3ccc(NS(=O)(=O)C(F)F)cn3)c21`, the Ki is < 10 nM. Turning to `CCNC(=O)c1ccc(Nc2nc(-c3c(F)cccc3F)nc3c2C(=O)NC3)cc1`, the Ki is < 10 nM. Take `O=C1NCc2nc(-c3c(F)cccc3F)cc(Nc3ccc(N4CCOCC4)nc3)c21`: the Ki was < 10 nM. In the case of `CC1(C)CCN(c2ccc(Nc3cc(-c4c(F)cccc4F)nc4c3C(=O)NC4)nc2)CC1`, the Ki is < 10 nM.

Turning to `CC(C)(C)Nc1ccc(Nc2cc(-c3c(F)cccc3F)nc3c2C(=O)NC3)nc1`, the Ki was < 10 nM. For `COc1ccc(Nc2cc(-c3c(F)cccc3F)nc3c2C(=O)N[C@@H]3C)nc1`, the Ki was < 10 nM. Regarding `C[C@@H]1CCC[C@@H](C)N1c1ccc(Nc2cc(-c3c(F)cccc3F)nc3c2C(=O)NC3)nc1`, the Ki is < 10 nM. The figure for `O=C1NCc2nc(-c3c(F)cccc3F)cc(Nc3ccc(F)cc3)c21` is < 10 nM. Regarding `O=C(Cc1ccc(Nc2nc(-c3c(F)cccc3F)nc3c2C(=O)NC3)cc1)NC1CNC1`, the Ki was < 10 nM. For the molecule `O=C1NCc2nc(-c3c(F)cccc3F)cc(Nc3ccc(N4CCN(CCC(F)(F)F)CC4)cn3)c21`, the Ki is < 10 nM.

For `COc1ccc(Nc2cc(-c3c(F)cccc3C#N)nc3c2C(=O)NC3)nc1`, the inhibition constant Ki was < 10 nM.

As to `CC(C)N1CCN(c2ccc(Nc3cc(-c4c(F)cccc4F)nc4c3C(=O)NC4)nc2)CC1`, the Ki was < 10 nM.

On to `CC(C)N1CCN(C(=O)c2ccc(Nc3cc(-c4c(F)cccc4F)nc4c3C(=O)NC4)cc2)CC1`, for which the Ki was < 10 nM. For the molecule `COC(=O)C(C)c1ccc(Nc2nc(-c3c(F)cccc3F)nc3c2C(=O)NC3)cc1` (stereo not drawn), the Ki was < 10 nM.

In the case of `CC1(O)CN(c2ccc(Nc3cc(-c4c(F)cccc4F)nc4c3C(=O)NC4)nc2)C1`, the Ki is < 10 nM.

For `Cc1ccc(Nc2nc(-c3c(F)cccc3F)nc3c2C(=O)NC3)cc1`, the Ki is < 10 nM.

`C[C@@H]1COCCN1c1ccc(Nc2cc(-c3c(F)cccc3F)nc3c2C(=O)NC3)nc1`: the Ki is < 10 nM. `C[C@H]1COC[C@H](C)N1c1ccc(Nc2cc(-c3c(F)cccc3F)nc3c2C(=O)NC3)nc1`: the Ki was < 10 nM. As for `N#Cc1cccc(F)c1-c1cc(Nc2ccc(C(=O)N3CCOCC3)cc2)c2c(n1)CNC2=O`, the Ki is < 10 nM.

Turning to `CC(C)N1CCN(c2ccc(Nc3cc(-c4c(F)cccc4F)nc4c3C(=O)NC4)nc2)C(=O)C1`, the inhibition constant (Ki) is < 10 nM. Turning to `O=C1NCc2nc(-c3c(F)cccc3F)cc(Nc3ccc(C(=O)N4CCC(F)(F)CC4)cc3)c21`, the Ki was < 10 nM. With `CN1CCN(C)[C@](C)(c2ccc(Nc3nc(-c4c(F)cccc4F)nc4c3C(=O)NC4)cc2)C1=O`, the Ki is < 10 nM. Regarding `C[C@@H]1COC[C@@H](C)N1C(=O)c1ccc(Nc2cc(-c3c(F)cccc3F)nc3c2C(=O)NC3)cc1`, the Ki was < 10 nM. Take `O=C1NCc2nc(-c3c(F)cccc3F)cc(Nc3ccc(N4C5COCC4C5)cn3)c21`: the Ki is < 10 nM. As for `O=C1NCc2nc(-c3c(F)cccc3F)cc(Nc3ccc(C(=O)N4CCCCC4)cc3)c21`, the Ki was < 10 nM. The figure for `O=C1NCc2nc(-c3c(F)cccc3F)cc(Nc3ccc(N4CCCOCC4)cn3)c21` is < 10 nM; for `O=C1NCc2nc(-c3c(F)cccc3F)cc(Nc3ccc(N4CCCC4)cn3)c21` it is < 10 nM.
